The source of these data is ChEMBL document CHEMBL4118170, “Alkylsulfanyl analogs as potent α2δ ligands” (Bioorg Med Chem Lett, 2018).

The target of data set [1] is Voltage-dependent calcium channel subunit alpha-2/delta-1 (Homo sapiens) (UniProt P54289). In words: Displacement of [3H]gabapentin from human voltage-gated Ca2+ channel alpha2delta1 subunit expressed in HEK293A cell membranes after 30 mins by liquid scintillation counting method. On the technique in general: In a radioligand displacement assay an active substance lowers the binding of a labelled ligand.
Sequence of Voltage-dependent calcium channel subunit alpha-2/delta-1 (Homo sapiens) (P54289 25-956 limits assumed): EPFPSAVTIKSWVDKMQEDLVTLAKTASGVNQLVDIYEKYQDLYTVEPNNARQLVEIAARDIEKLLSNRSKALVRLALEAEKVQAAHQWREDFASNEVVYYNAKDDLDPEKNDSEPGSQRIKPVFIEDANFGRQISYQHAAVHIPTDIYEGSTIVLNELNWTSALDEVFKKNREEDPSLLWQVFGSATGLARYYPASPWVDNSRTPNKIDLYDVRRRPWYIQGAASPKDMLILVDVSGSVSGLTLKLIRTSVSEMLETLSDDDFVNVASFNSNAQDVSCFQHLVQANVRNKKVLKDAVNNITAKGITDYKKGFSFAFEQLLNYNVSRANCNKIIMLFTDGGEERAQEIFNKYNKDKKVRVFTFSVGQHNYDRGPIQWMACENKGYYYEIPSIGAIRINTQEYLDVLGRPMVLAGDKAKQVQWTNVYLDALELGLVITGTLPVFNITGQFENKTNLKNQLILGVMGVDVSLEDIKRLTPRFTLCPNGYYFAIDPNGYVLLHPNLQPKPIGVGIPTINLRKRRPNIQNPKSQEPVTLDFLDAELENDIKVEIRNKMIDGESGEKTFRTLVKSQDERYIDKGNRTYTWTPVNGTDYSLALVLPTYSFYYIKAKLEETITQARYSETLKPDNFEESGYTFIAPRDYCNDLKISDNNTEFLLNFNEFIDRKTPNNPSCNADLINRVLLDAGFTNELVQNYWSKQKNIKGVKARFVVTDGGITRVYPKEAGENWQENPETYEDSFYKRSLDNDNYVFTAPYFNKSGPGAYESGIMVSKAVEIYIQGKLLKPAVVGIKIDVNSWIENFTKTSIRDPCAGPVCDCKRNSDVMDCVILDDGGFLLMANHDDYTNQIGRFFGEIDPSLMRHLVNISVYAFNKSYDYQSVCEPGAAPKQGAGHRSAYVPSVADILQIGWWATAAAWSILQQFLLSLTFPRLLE
Sequence of Voltage-dependent calcium channel subunit alpha-2/delta-1 (Homo sapiens) (P54289 957-1103 limits assumed): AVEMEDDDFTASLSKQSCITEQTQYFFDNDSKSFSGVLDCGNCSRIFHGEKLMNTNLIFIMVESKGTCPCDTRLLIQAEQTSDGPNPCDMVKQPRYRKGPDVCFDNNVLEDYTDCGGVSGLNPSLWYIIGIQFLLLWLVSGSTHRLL

In data set [2] the test system is Mus musculus. Nature of the data set: Analgesic activity in db/db mouse mechanical hyperalgesia model assessed as reversal of mechanical hyperalgesia at 100 mg/kg, po pretreated for 2 hrs by Von Frey test relative to control. It counts as functional.
The nature of data set [3]: Cmax in mouse at 10 mg/kg, po or 5 mg/kg, iv. In kind it is ADME, organism-based. To be noted: in vivo.
Data set [4] is described as follows: Half life in mouse at 10 mg/kg, po or 5 mg/kg, iv. It counts as ADME, organism-based. The settings on record: in vivo.
The test system of data set [5] is Mus musculus. In words: AUC in mouse at 10 mg/kg, po or 5 mg/kg, iv. It counts as ADME, organism-based. To be noted: in vivo.
Data set [6] in a line: Clearance in mouse at 10 mg/kg, po or 5 mg/kg, iv. It counts as ADME, organism-based. To be noted: in vivo.
A short description of data set [7]: Oral bioavailability in mouse at 10 mg/kg. In kind it is ADME, organism-based. The settings on record: in vivo.
Data set [8] relates to Rattus norvegicus. Nature of the data set: Analgesic activity in STZ-induced diabetic rat model assessed as pain threshold AUC (0 to 8 hrs) at 50 mg/kg, po by Von Frey test. It counts as functional, organism-based. More on the design: time < 8 hr, dose 50 mg/kg.
Data set [9] deals with Rattus norvegicus. In words: Analgesic activity in STZ-induced diabetic rat model assessed as pain threshold AUC (0 to 8 hrs) at 30 mg/kg, po by Von Frey test. In kind it is functional, organism-based. More on the design: time < 8 hr, dose 30 mg/kg.
Data set [10] relates to Mus musculus. In words: Effect on motor coordination in mouse at 30 mg/kg, po measured over 120 secs at 2 hrs post drug administration by rota rod test. In kind it is ADME, organism-based. The settings on record: in vivo. On the technique in general: The rotarod test checks motor coordination on a turning rod.
Data set [11] concerns Mus musculus. In words: Effect on motor coordination in mouse at 100 mg/kg, po measured over 120 secs at 2 hrs post drug administration by rota rod test. In kind it is ADME, organism-based. To be noted: in vivo.
In data set [12] the test system is Rattus norvegicus. In words: Analgesic activity in STZ-induced diabetic rat model assessed as pain threshold AUC (0 to 8 hrs) at 10 mg/kg, po by Von Frey test. It counts as functional, organism-based. More on the design: dose 10 mg/kg, time < 8 hr.

Usually Cmax stands for the highest concentration seen after dosing. The half-life is the time needed for the level to fall by half in the phase considered. A higher half-life goes with slow loss. Usually bioavailability stands for dose-corrected exposure relative to a reference, in per cent.

Consider `CSC(C)CC(CN)CC(=O)O` (mixture of isomers), for which, in data set [1], the displacement potency (concentration) was 0.17 µM. Also, in the data set with Mus musculus [2], the Activity was found to be 64%.

Consider `CS[C@H](C)C[C@H](CN)CC(=O)O`, for which the displacement potency (concentration) in data set [1] came out at 0.62 µM. Moreover, the Activity in the data set with Mus musculus [2] came to 4%. Further, in data set [3], the highest level (Cmax) was 6.22 µg/mL. The half-life in data set [4] was 4.52 h. This compound registered an AUC in the data set with Mus musculus [5] of 9.98 µg·h/mL. In [6], this compound returned a clearance of 1.05 L/h/kg. For the same compound, the bioavailability in data set [7] worked out at 100%.

As for `CCOC(C)CC(CN)CC(=O)O` (centres undefined), the displacement potency (concentration) in data set [1] is 0.97 µM. The Activity in the data set with Mus musculus [2] is 22%.

Consider `CC(C)SCC(CN)CC(=O)O` (centres undefined), for which, in [1], the displacement potency (concentration) worked out at 19 µM.

As for `COC(C)CC(CN)CC(=O)O` (centres undefined), the displacement potency (concentration) in [1] came to 0.41 µM. Moreover, in the data set with Mus musculus [2], the Activity is 4%.

On to `CSCCC(CN)CC(=O)O` (racemic), for which the displacement potency (concentration) in [1] is 0.48 µM. In the data set on Mus musculus [2], the Activity is reported as 12%.

`CCSC(C)CC(CN)CC(=O)O` (centres undefined): in data set [1], the displacement potency (concentration) worked out at 0.2 µM. Also, the Activity in the data set on Mus musculus [2] came to 43%.

With `CCS[C@H](C)C[C@H](CN)CC(=O)O`, the displacement potency (concentration) in data set [1] worked out at 0.29 µM. In addition, the Activity in the data set with Mus musculus [2] was 3%.

As for `COCC(C)C(CN)CC(=O)O` (centres undefined), the displacement potency (concentration) in data set [1] amounted to 0.16 µM. In the data set with Mus musculus [2], the Activity was 10%.

For `CCSCC(CN)CC(=O)O` (racemic), in data set [1], the displacement potency (concentration) was 1.9 µM.

With `CSCC(CN)CC(=O)O` (racemic), in [1], the displacement potency (concentration) is 1 µM. Further, the Activity in the data set with Mus musculus [2] was 9%.

On to `COCCC(CN)CC(=O)O` (racemic), for which the displacement potency (concentration) in [1] came out at 0.24 µM. Also, the Activity in the data set with Mus musculus [2] was determined as 17%.

As to `CS[C@@H](C)C[C@H](CN)CC(=O)O`, the displacement potency (concentration) in data set [1] is 0.048 µM. Moreover, the Activity is given as 80% in the data set on Mus musculus [2], “Non-Toxic” in the data set on Mus musculus [10] and “Toxic” in the data set with Mus musculus [11]. Moreover, the Cmax in data set [3] is 5.19 µg/mL. Also, the half-life in data set [4] is 2.4 h. Besides, the AUC with Mus musculus [5] came to 12.5 µg·h/mL; in the data set on Rattus norvegicus [8], 18 g·h; in the data set with Rattus norvegicus [9] it was 10 g·h. Further, the clearance in data set [6] stood at 1.06 L/h/kg. In data set [7], this compound came in with a bioavailability of 100%.

Take `CSC(C)C(CN)CC(=O)O` (centres undefined): the displacement potency (concentration) in [1] came to 0.24 µM. Also, in the data set on Mus musculus [2], the Activity was determined as 9%.

As for `CSCC(C)C(CN)CC(=O)O` (centres undefined), the displacement potency (concentration) in data set [1] came to 0.15 µM. In the data set on Mus musculus [2], the Activity came to 2%.

As for `COCC(CN)CC(=O)O` (racemic), in [1], the displacement potency (concentration) was 3.2 µM.

Consider `CCS[C@@H](C)C[C@H](CN)CC(=O)O`, for which, in data set [1], the displacement potency (concentration) was 0.02 µM. Further, the Activity with Mus musculus [2] is 90%; in the data set with Mus musculus [10] it was “Toxic”; in the data set with Mus musculus [11], “Toxic”. This compound yielded a Cmax in data set [3] of 5.61 µg/mL. This compound also showed a half-life in data set [4] of 2.09 h. The AUC worked out at 8.14 µg·h/mL in the data set with Mus musculus [5], 6.3 g·h in the data set with Rattus norvegicus [12] and 19 g·h with Rattus norvegicus [9]. The clearance in [6] was determined as 0.347 L/h/kg. In [7], this compound came in with a bioavailability of 28%.

Consider `CS[C@@H](C)C[C@@H](CN)CC(=O)O`, for which the displacement potency (concentration) in [1] is 0.29 µM. In addition, in the data set on Mus musculus [2], the Activity is 0%. Moreover, in data set [3], the Cmax was 1.61 µg/mL. In [4], this compound had a half-life of 5.8 h. This compound had an AUC with Mus musculus [5] of 3.02 µg·h/mL. In data set [6], the clearance was 1.43 L/h/kg. The compound also yielded a bioavailability in data set [7] of 45%.

Turning to `CC(C)C[C@H](CN)CC(=O)O` [PREGABALIN], the displacement potency (concentration) in data set [1] amounted to 0.039 µM. Besides, the Activity with Mus musculus [2] is given as 98%; in the data set on Mus musculus [10] it was “Toxic”; with Mus musculus [11], “Toxic”. The compound also came in with a Cmax in data set [3] of 1.34 µg/mL. The compound also gave a half-life in data set [4] of 2.54 h. The AUC in the data set with Mus musculus [5] was 18.9 µg·h/mL; with Rattus norvegicus [12], 5.8 to 17 g·h; in the data set on Rattus norvegicus [9] it was 18 to 27 g·h. Also, the clearance in data set [6] turned out to be 0.466 L/h/kg. The same compound showed a bioavailability in data set [7] of 88%.

On to `CS[C@H](C)C[C@@H](CN)CC(=O)O`, for which, in data set [1], the displacement potency (concentration) was 0.72 µM. Moreover, the Activity in the data set with Mus musculus [2] was found to be 3%. For the same compound, the Cmax in data set [3] worked out at 3.59 µg/mL. In data set [4], this compound gave a half-life of 4.42 h. This compound also displayed an AUC with Mus musculus [5] of 5.8 µg·h/mL. Besides, in [6], the clearance is 1.9 L/h/kg. Besides, in data set [7], the bioavailability stood at 100%.
